Measurements: patent US8278090B1, “Heterotrophic cultivation of hydrocarbon-producing microalgae” (Solazyme, Inc., priority 2008, dated 2012)
“And” between values parts separate entries of the source, which are not always exact repeats. Equal entries are not always repeated.

What was measured:
Format in all cases: cell-based
[1] = test system: Botryococcus braunii UTEX 572; assay: Different fixed carbon sources on heterotrophic growth, visual score; set-up: key to heterotrophic growth score, 0.1% / heterotrophic growth score, 0.5% / heterotrophic growth score, 1%: Growth was scored with +'s by visual examination of the cultures; ++: Growth was scored with +'s by visual examination of the cultures; +++: Growth was scored with +'s by visual examination of the cultures; ++++: Growth was scored with +'s by visual examination of the cultures; +++++: Growth was scored with +'s by visual examination of the cultures
Experimental: (§1) All carbon sources were tested at three different concentrations; 0.1%, 0.5% and 1%. Cultures were grown in 24 well plates for 4 weeks in the dark in 1 ml BG11 plus fixed carbon. Control cultures were grown in BG-11 media under phototrophic conditions without a fixed carbon source. Growth was scored with +'s by visual examination of the cultures (see Table 7). UTEX 572 grew best in glucose, however there was also growth on mannose, galactose and fructose. UTEX 2441 preferred mannose in the dark but there was some growth in galactose, fructose and glycerol.

[2] = test system: Botryococcus braunii N-836; assay: as above; set-up: key to heterotrophic growth score, 0.1% / heterotrophic growth score, 0.5% / heterotrophic growth score, 1%: Growth was scored with +'s by visual examination of the cultures; ++: Growth was scored with +'s by visual examination of the cultures; +++: Growth was scored with +'s by visual examination of the cultures; ++++: Growth was scored with +'s by visual examination of the cultures; +++++: Growth was scored with +'s by visual examination of the cultures
Experimental: as §1

[3] = test system: Botryococcus braunii UTEX 2441; assay: as above; set-up: key to heterotrophic growth score, 0.1% / heterotrophic growth score, 0.5% / heterotrophic growth score, 1%: Growth was scored with +'s by visual examination of the cultures; ++: Growth was scored with +'s by visual examination of the cultures; +++: Growth was scored with +'s by visual examination of the cultures; ++++: Growth was scored with +'s by visual examination of the cultures; +++++: Growth was scored with +'s by visual examination of the cultures; conditions: 4 weeks
Experimental: as §1

[4] = test system: Botryococcus braunii (UTEX 572); assay: High surface to volume heterotrophic cultivation; conditions: UTEX 572, 3% glucose, dark, stepwise scale-up
Experimental: In order to develop a reproducible, scalable process for the heterotrophic cultivation of B. braunii, a low-volume, slow-mixing heterotrophic procedure was developed. Botryococcus braunii (UTEX 572) cultures were transferred from solid media plates into 6-well plates using B-11 media supplemented with 3% glucose and was grown for one week at room temperature in the dark. The cultures were then transferred into 50 mL of fresh media in a 150 mL T-flask and agitated at 40 rpm on a plate shaker for one week at room temperature in the dark. The cultures were then transferred into 100 mL of fresh media in a 500 mL T-flask and agitated at 30 rpm with a two-inch throw for one week at room temperature in the dark. Finally, the cultures were transferred into 350 mL of fresh media in a Fernbach flask and agitated at 30 rpm with a two-inch throw for one week at room temperature in the dark. In one set of cultures, the cells were transferred into 500 mL of fresh media in a Fernbach flask (instead of 350 mL). Dry cell weights were collected for all cultures and compared. Cultures that were grown in a final volume of 350 mL of media reached a DCW of about 9 grams per liter.

[5] = test system: Botryococcus braunii UTEX 572; assay: Complex nitrogen sources on heterotrophic growth with glucose; conditions: UTEX 572, 1% glucose in BG11, dark, 4 weeks
Experimental: (§2) The following experiment was done with UTEX 572, UTEX 2441, and N-836 in 20 ml of BG11 plus:
(§3) 1% glucose+2 g/L hydrolyzed casein

[6] = test system: Botryococcus braunii N-836; assay: as above; conditions: N-836, 1% glucose in BG11, dark, 4 weeks
Experimental: as §2, §3

[7] = test system: Botryococcus braunii UTEX 2441; assay: as above; conditions: UTEX 2441, 1% glucose in BG11, dark, 4 weeks
Experimental: as §2, §3

[8] = test system: Botryococcus braunii UTEX 572; assay: Heterotrophic growth with glucose, 24 well plate, dark or light; conditions: for DCW g/L / DCW mg/ml.: 4 weeks
Experimental: (§4) Modified BG-11 (17.65 mM NaNO3, 0.23 mM K2PO4, 0.3 mM MgSO4.7H2O, 0.25 mM CaCl2.2H2O, 0.189 mM Na2CO3, 0.03 mM citric acid monohydrate, 0.023 mM ferric ammonium citrate, 0.046 mM H3BO3, 9.15 μM MnCl2.4H2O, 0.77 μM ZnSO4.7H2O, 0.32 μM CuSO4.5H2O, 0.21 μM CoCl2.6H2O, 1.62 μM NaMoO4.2H2O, 2.69 μM Na2EDTA, 9 mg/l Tricine, 1.99 μM Thiamine-HCl, 0.006 μM Cyanocobalamine, 0.044 μM Calcium Pantothenate, 0.29 μM p-aminobenzoic acid, soil water).

[9] = test system: Botryococcus braunii UTEX 2441; assay: as above; conditions: for DCW g/L / DCW mg/ml.: 4 weeks
Experimental: as §4

[10] = test system: Botryococcus braunii (strain UTEX 572); assay: Media component screening in heterotrophic culture; conditions: UTEX 572, 0.2% component + 3% glucose, 6-well plates, dark, room temperature, 16 days
Experimental: Media components incorporated in soil bacteria media were tested in heterotrophic culture of Botryococcus braunii (strain UTEX 572). For each component tested, 5 ml of B11 media (as described in Example 2 above) supplemented with 3% glucose (Fisher) were prepared in 6-well plates. Additionally, the media was supplemented with 0.2% of one of the following soil bacteria media components: dextrin (MP Biomedicals), malt extract (MP Biomedicals), traders yeast (Pharmamedia), corn meal, corn steep powder (Marcor), whole dead yeast (Engevita), casein type M (Marcor), casein type B (Marcor), tomato paste, molasses, soy hydrolysate (MP Biomedicals), soy flour (Arrowhead Mills), corn starch (Sigma), and maltose (Fisher). Wells were inoculated and cultures were grown at room temperature in the dark for 16 days. […] All media were filter sterilized.
The cells from each condition were transferred into 150 mL T150 flasks containing 50 mL B11 media with 3% glucose and 0.2% of their respective supplemental component. Cultures were grown in the dark for one week at 28° C. Cells were pelleted and fresh media (100 mL) were added to the cultures. The cultures were allowed to grow for another two weeks in the dark at 28° C. and then were collected and dry cell weights were measured. For most conditions, the addition of a 0.2% supplemental component increased cell growth as compared to glucose control. […]

## O=C[C@H](O)[C@@H](O)[C@H](O)[C@H](O)CO [glucose]
[1]; UTEX 572, 0.1% carbon source in 1 ml BG11, dark, 4 weeks
  heterotrophic growth score, 0.1%: +++
[1]; UTEX 572, 0.5% carbon source in 1 ml BG11, dark, 4 weeks
  heterotrophic growth score, 0.5%: ++++
[1]; UTEX 572, 1% carbon source in 1 ml BG11, dark, 4 weeks
  heterotrophic growth score, 1%: +++++
[1]; UTEX 572, dark
  heterotrophic growth on carbon source, in words: grew best
[2]; N-836, 0.1% carbon source in 1 ml BG11, dark, 4 weeks
  heterotrophic growth score, 0.1%: ++
[2]; N-836, 0.5% carbon source in 1 ml BG11, dark, 4 weeks
  heterotrophic growth score, 0.5%: ++
[2]; N-836, 1% carbon source in 1 ml BG11, dark, 4 weeks
  heterotrophic growth score, 1%: +++
[2]; N-836, dark
  heterotrophic growth on carbon source, in words: heterotrophic growth
[3]; UTEX 2441, 0.1% carbon source in 1 ml BG11, dark
  heterotrophic growth score, 0.1%: ++
[3]; UTEX 2441, 0.5% carbon source in 1 ml BG11, dark
  heterotrophic growth score, 0.5%: ++
[3]; UTEX 2441, 1% carbon source in 1 ml BG11, dark
  heterotrophic growth score, 1%: ++++
[4]; final volume 350 mL
  DCW: about 9 grams per liter
[4]; final volume 500 mL
  DCW: about 3 grams per liter
[5]
  DCW: 0.20 g/L and 0.33 g/L
  DCW mg/3 m1.: 0.6 mg/3 m1 and 1.0 mg/3 m1
[6]
  DCW: 0.267 g/L
  DCW mg/3 m1.: 0.8 mg/3 m1
[7]
  DCW: 0.067 g/L
  DCW mg/3 m1.: 0.2 mg/3 m1
[8]; UTEX 572, 0.1% glucose, dark
  DCW g/L: 0.2 g/L
  DCW mg/ml.: 0.2 mg/mL
[8]; UTEX 572, 0.2% glucose, dark
  DCW g/L: 0.2 g/L
  DCW mg/ml.: 0.2 mg/mL
[8]; UTEX 572, 0.5% glucose, dark
  DCW g/L: 0.4 g/L
  DCW mg/ml.: 0.4 mg/mL
[8]; UTEX 572, 1% glucose, dark
  growth in the dark at 1% glucose compared with 0.1 and 0.5%: best growth
[8]; UTEX 572, BG11 plus glucose, dark
  growth with glucose in the dark: clearly grew
[8]; UTEX 572, BG11 plus glucose, light
  growth with glucose in the light: no growth
[9]; UTEX 2441, 0.1% glucose, dark
  DCW g/L: 0.3 g/L
  DCW mg/ml.: 0.3 mg/mL
[9]; UTEX 2441, 0.2% glucose, dark
  DCW g/L: 0.3 g/L
  DCW mg/ml.: 0.3 mg/mL
[9]; UTEX 2441, 0.5% glucose, dark
  DCW g/L: 0.1 g/L
  DCW mg/ml.: 0.1 mg/mL
[9]; UTEX 2441, 1% glucose, dark
  growth in the dark at 1% glucose compared with 0.1 and 0.5%: best growth
[9]; UTEX 2441, 1.0% glucose, dark
  DCW g/L: 0.7 g/L
  DCW mg/ml.: 0.7 mg/mL
[9]; UTEX 2441, BG11 plus glucose, dark
  growth with glucose in the dark: clearly grew
[9]; UTEX 2441, BG11 plus glucose, light
  growth with glucose in the light: no growth

## OC[C@H]1O[C@H](O[C@H]2[C@H](O)[C@@H](O)C(O)O[C@@H]2CO)[C@H](O)[C@@H](O)[C@@H]1O (mixture of isomers) [maltose]
[10]
  growth by visual observation as compared to glucose only control: better growth
